Values quoted from earlier work in patent US20080096972A1, “COMPOUND FORMULATIONS OF 2-AMINO-1, 3-PROPANEDIOL COMPOUNDS” (priority 2004, published 2008).

Conditions: shortly after preparation or upon storage

CCCCCCCCc1ccc(CCC(N)(CO)CO)cc1 [2-amino-2-[2-(4-octylphenyl)ethyl]-propane-1,3-diol]
crystalline deposits in aqueous solutions: crystalline deposits of this compound have been observed
